From PubChem BioAssay AID248 (DTP/NCI, 2004)
Values joined by “and” are separate entries in the source; they are usually repeats but may differ in a detail not shown here. Equal entries are not always repeated. Toxic doses and inconclusive results are not listed. Cut-off read from the data, not from the text of the source: active = T/C of 150% or more; inactive = T/C below 125%.

Test system: L1210 leukemia ip in BDF1 mice, survival T/C
Test: NCI In Vivo Anticancer Drug Screen. Data for tumor model L1210 Leukemia (intraperitoneal) in B6D2F1 (BDF1) mice
Conditions: endpoint: mean survival time, higher = longer survival
Summary of the method: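 Tumor cells were implanted, animals were treated, and survival was followed. The result divides the treated measurement by the vehicle-control measurement.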

[1] = dose: 100.0 mg/kg/injection, schedule: Q04DX003 (ip), vehicle: saline with Tween-80
[2] = dose: 200.0 mg/kg/injection, schedule: Q04DX003 (ip), vehicle: saline with Tween-80
[3] = dose: 400.0 mg/kg/injection, schedule: Q04DX003 (ip), vehicle: saline with Tween-80
[4] = dose: 100.0 mg/kg/injection, schedule: Q01DX009 (ip), vehicle: saline with Tween-80
[5] = dose: 200.0 mg/kg/injection, schedule: Q01DX009 (ip), vehicle: saline with Tween-80
[6] = dose: 400.0 mg/kg/injection, schedule: Q01DX009 (ip), vehicle: saline with Tween-80
[7] = dose: 100.0 mg/kg/injection, schedule: Q01DX009 (ip), vehicle: saline
[8] = dose: 200.0 mg/kg/injection, schedule: Q01DX009 (ip), vehicle: saline
[9] = dose: 100.0 mg/kg/injection, schedule: Q04DX003 (ip), vehicle: Klucel (hydroxypropylcellulose) (HPC)
[10] = dose: 100.0 mg/kg/injection, schedule: Q01DX001 (ip), vehicle: saline
[11] = dose: 200.0 mg/kg/injection, schedule: Q01DX001 (ip), vehicle: saline
[12] = dose: 400.0 mg/kg/injection, schedule: Q01DX001 (ip), vehicle: saline
[13] = dose: 75.0 mg/kg/injection, schedule: Q01DX001 (ip), vehicle: saline
[14] = dose: 100.0 mg/kg/injection, schedule: Q04DX003 (ip), vehicle: saline
[15] = dose: 200.0 mg/kg/injection, schedule: Q04DX003 (ip), vehicle: saline
[16] = dose: 400.0 mg/kg/injection, schedule: Q04DX003 (ip), vehicle: saline

Measured: T/C

O=C(Nc1ccc(Cl)cc1Cl)c1cc(Cl)cc(Cl)c1Br
inactive: [1] 101 % of control | [2] 92 % of control | [3] 92 % of control

NC(NCCN1CC1)(C(F)(F)F)C(F)(F)F
inactive: dose: 10.0 mg/kg/injection, schedule: Q04DX003 (ip), vehicle: Klucel (hydroxypropylcellulose) (HPC) 109 % of control | dose: 20.0 mg/kg/injection, schedule: Q01DX001 (ip), vehicle: Klucel (hydroxypropylcellulose) (HPC) 105 % of control | dose: 20.0 mg/kg/injection, schedule: Q04DX003 (ip), vehicle: Klucel (hydroxypropylcellulose) (HPC) 104 % of control | dose: 40.0 mg/kg/injection, schedule: Q01DX001 (ip), vehicle: Klucel (hydroxypropylcellulose) (HPC) 101 % of control | dose: 40.0 mg/kg/injection, schedule: Q04DX003 (ip), vehicle: Klucel (hydroxypropylcellulose) (HPC) 109 % of control

Cn1nc(NC(=O)C(F)(F)F)c2ncc(-c3ccc(Cl)cc3)nc21
inactive: [4] 102 % of control | [1] 100 % of control | [5] 97 % of control | [2] 87 % of control | [6] 97 % of control | [3] 96 % of control

CCN(CC)CCNc1ccc(CO)c2oc3ccccc3c(=O)c12
inactive: dose: 50.0 mg/kg/injection, schedule: Q01DX009 (ip), vehicle: saline 99 % of control | [7] 96 % of control | [8] 99 % of control

Cc1cc2c(c(NC(=O)NCCCl)c1C)CCCC2
inactive: dose: 100.0 mg/kg/injection, schedule: Q01DX009 (ip), vehicle: Klucel (hydroxypropylcellulose) (HPC) 92 % of control | [9] 105 % of control | dose: 200.0 mg/kg/injection, schedule: Q01DX009 (ip), vehicle: Klucel (hydroxypropylcellulose) (HPC) 100 % of control | dose: 200.0 mg/kg/injection, schedule: Q04DX003 (ip), vehicle: Klucel (hydroxypropylcellulose) (HPC) 96 % of control | dose: 400.0 mg/kg/injection, schedule: Q01DX009 (ip), vehicle: Klucel (hydroxypropylcellulose) (HPC) 91 % of control | dose: 400.0 mg/kg/injection, schedule: Q04DX003 (ip), vehicle: Klucel (hydroxypropylcellulose) (HPC) 103 % of control

CC/C(I)=C(/CC)S(=O)(=O)c1ccc(C)cc1
inactive: [10] 101 % of control | [4] 98 % of control | [11] 103 % of control | [5] 102 % of control | [12] 111 % of control | [6] 98 % of control

O=S(=O)(F)c1cc(Cl)ccc1C[P+](c1ccccc1)(c1ccccc1)c1ccccc1
inactive: dose: 10.0 mg/kg/injection, schedule: Q04DX003 (ip), vehicle: saline 97 % of control | dose: 20.0 mg/kg/injection, schedule: Q04DX003 (ip), vehicle: saline 89 % of control

O=C(O)c1cc2ccccc2c2cc(C(F)(F)F)ccc12
inactive: [13] 92 % of control | dose: 150.0 mg/kg/injection, schedule: Q01DX001 (ip), vehicle: saline 97 % of control

O=C(CBr)N=c1cc(-c2ccc(Cl)cc2)ss1
inactive: [14] 95 % of control | [15] 91 % of control | [16] 101 % of control

Nc1nc(N)c(C=O)c(Nc2ccc(I)cc2)n1
inactive: dose: 50.0 mg/kg/injection, schedule: Q01DX001 (ip), vehicle: saline 100 % of control | [10] 100 % of control | [11] 123 % of control | [12] 117 % of control

COc1ccc(Nc2cc(C)nc(N)n2)cc1
inactive: dose: 25.0 mg/kg/injection, schedule: Q01DX Z (ip), vehicle: methylcellulose (MC) 97 % of control | dose: 50.0 mg/kg/injection, schedule: Q01DX Z (ip), vehicle: methylcellulose (MC) 105 % of control

CCC(CC)C1CC[N-]CC1.CCC(CC)C1CC[N-]CC1.N#C[S-].N#C[S-].[Cu]
inactive: [13] 123 % of control

CC1(C)CCS1(=O)=O
inactive: dose: 100.0 mg/kg/injection, schedule: Q04DX002 (ip), vehicle: saline 100 % of control | dose: 200.0 mg/kg/injection, schedule: Q04DX002 (ip), vehicle: saline 100 % of control | dose: 400.0 mg/kg/injection, schedule: Q04DX002 (ip), vehicle: saline 100 % of control

NC(=O)C1=CN(CCc2ccccc2)c2ccccc2C1S(=O)(=O)O (stereo unspecified)
inactive: dose: 75.0 mg/kg/injection, schedule: Q01DX001 (ip), vehicle: other 98 % of control | dose: 150.0 mg/kg/injection, schedule: Q01DX001 (ip), vehicle: other 94 % of control | dose: 300.0 mg/kg/injection, schedule: Q01DX001 (ip), vehicle: other 96 % of control

BrCCCCBr
inactive: [10] 103 % of control | [11] 100 % of control | [12] 103 % of control

C(=NCCN=Cc1ccccc1)c1ccccc1
inactive: [1] 101 % of control | [2] 95 % of control | [3] 111 % of control

CN(C(=O)c1c(Cl)[nH]c2ccccc12)c1ccccc1
inactive: dose: 25.0 mg/kg/injection, schedule: Q04DX003 (ip), vehicle: Klucel (hydroxypropylcellulose) (HPC) 96 % of control | dose: 50.0 mg/kg/injection, schedule: Q04DX003 (ip), vehicle: Klucel (hydroxypropylcellulose) (HPC) 95 % of control | [9] 90 % of control

CCCN(CCC)CCC(=O)O
inactive: [7] 100 % of control | [14] 97 % of control | [8] 96 % of control | [15] 108 % of control | dose: 400.0 mg/kg/injection, schedule: Q01DX009 (ip), vehicle: saline 102 % of control | [16] 101 % of control

NC1(C(=O)O)CC(O)(c2ccccc2)C(O)(c2ccccc2)C1 (stereo unspecified)
inactive: [10] 88 % of control | [11] 93 % of control

Oc1ccc(NC(=S)Nc2ccccc2)cc1
inactive: [4] 93 % of control | [5] 88 % of control | [6] 92 % of control

O=C(O)CNCCN1CC(=O)N(c2ccccc2)C1=S
inactive: dose: 100.0 mg/kg/injection, schedule: Q01DX001 (ip), vehicle: carboxymethylcellulose (CMC) 93 % of control | dose: 100.0 mg/kg/injection, schedule: Q01DX009 (ip), vehicle: carboxymethylcellulose (CMC) 94 % of control and 95 % of control | dose: 100.0 mg/kg/injection, schedule: Q04DX002 (ip), vehicle: carboxymethylcellulose (CMC) 97 % of control and 98 % of control | dose: 100.0 mg/kg/injection, schedule: Q04DX003 (ip), vehicle: carboxymethylcellulose (CMC) 98 % of control | dose: 200.0 mg/kg/injection, schedule: Q01DX001 (ip), vehicle: carboxymethylcellulose (CMC) 98 % of control | dose: 200.0 mg/kg/injection, schedule: Q01DX009 (ip), vehicle: carboxymethylcellulose (CMC) 94 % of control and 90 % of control | dose: 200.0 mg/kg/injection, schedule: Q04DX002 (ip), vehicle: carboxymethylcellulose (CMC) 91 % of control | dose: 200.0 mg/kg/injection, schedule: Q04DX003 (ip), vehicle: carboxymethylcellulose (CMC) 93 % of control | dose: 400.0 mg/kg/injection, schedule: Q01DX001 (ip), vehicle: carboxymethylcellulose (CMC) 95 % of control | dose: 400.0 mg/kg/injection, schedule: Q01DX009 (ip), vehicle: carboxymethylcellulose (CMC) 86 % of control | dose: 400.0 mg/kg/injection, schedule: Q04DX002 (ip), vehicle: carboxymethylcellulose (CMC) 97 % of control and 98 % of control | dose: 400.0 mg/kg/injection, schedule: Q04DX003 (ip), vehicle: carboxymethylcellulose (CMC) 89 % of control

CCCCC(NC(=O)CN)C(=O)O (stereo unspecified)
inactive: dose: 25.0 mg/kg/injection, schedule: Q01DX001 (ip), vehicle: Klucel (hydroxypropylcellulose) (HPC) 105 % of control | dose: 50.0 mg/kg/injection, schedule: Q01DX001 (ip), vehicle: Klucel (hydroxypropylcellulose) (HPC) 103 % of control | dose: 100.0 mg/kg/injection, schedule: Q01DX001 (ip), vehicle: Klucel (hydroxypropylcellulose) (HPC) 100 % of control

CCCCCCCCCCCCNC
inactive: dose: 12.5 mg/kg/injection, schedule: Q01DX009 (ip), vehicle: saline with Tween-80 92 % of control | dose: 25.0 mg/kg/injection, schedule: Q01DX009 (ip), vehicle: saline with Tween-80 93 % of control | dose: 25.0 mg/kg/injection, schedule: Q04DX003 (ip), vehicle: saline with Tween-80 103 % of control | dose: 50.0 mg/kg/injection, schedule: Q01DX009 (ip), vehicle: saline with Tween-80 91 % of control | dose: 50.0 mg/kg/injection, schedule: Q04DX003 (ip), vehicle: saline with Tween-80 93 % of control | [1] 93 % of control

CCC(C)C(CCN(CC)CC)(CNC(=O)CN(CC)CC)c1cccc2ccccc12 (stereo unspecified)
inactive: [7] 97 % of control
